According to patent publication EP2155158B1, “PERSONAL LUBRICANT COMPOSITION” (LRC Products Limited, priority 2007, dated 2008):
Where two headings read alike, the source gives them in different places.

Key:
[1] = Cooling strength of coolants relative to menthol; conditions: menthol = 100
Excerpt: N-ethyl-p-menthane-3-carboxamide has, to date, primarily been used in oral, medicinal and confectionary products, such as breath freshening chewing gums. […]

[2] = Crystallisation / clouding at low temperatures; assay type: physicochemical
[3] = Volatility compared with menthol; assay type: physicochemical

| Molecule | Cooling strength relative to menthol [1] | also measured |
| --- | --- | --- |
| CC1CCC(C(C)C)C(O)C1 (stereo not shown) [Menthol] | 100 | loss of coolant on storage (reduction in the level of retained coolant) (personal lubricant formulation, 2190 h): about 50% |
| CC1CCC(C(C)C)C(OC(=O)C(C)O)C1 (stereo not shown) [Menthyl lactate] | 43 | – |
| Menthone lactate | 41 | – |
| CCNC(=O)C1CC(C)CCC1C(C)C (stereo not shown) [WS-3, N-ethyl-p-menthane-3-carboxamide] | 150 | crystallisation at low temperatures [2]: does not crystallise at low temperatures; volatility [3]: lower volatility than menthol; loss of coolant on storage (reduction in the level of retained coolant) (in personal lubricant formulation, storage for 3 months at 40°C): no loss |
| C=C(C)C1CCC(C)CC1O (stereo not shown) [Isopulegol, 2-isopropenyl-5-methyl-cyclohexanol] | 25 | – |
| CNC(=O)C(C)(C(C)C)C(C)C [WS-23] | 75 | – |
